This test has as its target proBFT-3 (Bacteroides fragilis, UniProt O86049). The experiment in a line: isothermal titration calorimetry. The format is binding.

Chain of proBFT-3 (O86049 18-397 limits assumed): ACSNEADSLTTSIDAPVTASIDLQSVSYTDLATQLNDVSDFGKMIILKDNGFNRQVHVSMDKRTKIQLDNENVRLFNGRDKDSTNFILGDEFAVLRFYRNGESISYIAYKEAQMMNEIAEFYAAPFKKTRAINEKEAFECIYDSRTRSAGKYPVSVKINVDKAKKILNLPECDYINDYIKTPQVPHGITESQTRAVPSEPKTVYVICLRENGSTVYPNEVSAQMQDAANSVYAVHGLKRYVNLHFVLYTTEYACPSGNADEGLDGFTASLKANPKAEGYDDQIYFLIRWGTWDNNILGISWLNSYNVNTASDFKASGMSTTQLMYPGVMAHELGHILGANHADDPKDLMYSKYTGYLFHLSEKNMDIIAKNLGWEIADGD

As for `C[C@@H]1CCc2cc(F)cc3c(=O)c(C(=O)O)cn1c23` [C-4, flumequine], the Kd was 20 µM.

In the case of `COc1ccc([C@@H]2CC(=O)c3c(O)cc(O)cc3O2)cc1O` [C-10, hesperetin], the equilibrium dissociation constant (Kd) turned out to be 22 µM.

The values are drawn from PMC9514063 (Protein Science : A Publication of the Protein Society, 2022).
